# Source: article PMC8480901 (PLoS ONE, 2021)
# Several values for one entry are separate records, joined by “and”; a condition that tells them apart may be missing. Equal entries are not always repeated.
# System: TNF-α, IL-6, IL-1β, GM-CSF, CXCL-1, CXCL-2, CCL-2 and MMP-9 in lung tissue
# Assay: LPS-induced cytokines, chemokines and MMP-9 in mouse lung homogenates (Luminex, ELISA)
# Conditions: for CCL2 % reduction / CXCL1 % reduction / CXCL2 % reduction / GM-CSF % reduction / IL-1β % reduction / IL-6 % reduction / MMP9 % reduction / TNFα % reduction / CCL2 / CXCL1 / CXCL2 / GM-CSF / IL-1β / IL-6 / MMP9 / TNFα / CCL2 Mean / CXCL1, Mean / CXCL2, Mean / GM-CSF Mean / IL-1β Mean / IL-6 Mean / MMP9, Mean / TNFα Mean: lung homogenate, LPS; for CCL2 / CXCL1 / CXCL2 / GM-CSF / IL-1β / IL-6 / MMP9 / TNFα: individual animal, listed as Lef; for CCL2 Mean / CXCL1, Mean / CXCL2, Mean / GM-CSF Mean / IL-1β Mean / IL-6 Mean / MMP9, Mean / TNFα Mean: mean of 8
# [1] = all doses (10, 30, 100 mg/kg SC)
# [2] = all doses tested (10, 30, 100 mg/kg SC), vs vehicle control
# Protocol: To induce pulmonary neutrophilia, mice in the control group received intranasal (IN) 50 μL saline, and all other animals received 5 μg LPS/50 μL saline IN per mouse.
# After bronchoalveolar lavage, lungs were removed, weighed, snap frozen, and stored at −80°C until analysis. To homogenize the tissue, the frozen lungs were thawed and placed in Precellys CK28 Hard Tissue tubes (BERTIN Instruments, Montigny-le-Bretonneux, France) in 1 mL PBS (Gibco, Life Technologies, Paisley, UK) supplemented with protease inhibitors (Halt™ Protease Inhibitor Cocktail [100×]; Thermo Fisher Scientific, Rockford, IL, USA). A Precellys homogenizer (BERTIN Instruments) was used, shaking at 6800 rpm for three 30-second pulses separated by 15-second pauses. After homogenization, samples were centrifuged at 18,000×g for 10 minutes at 4°C, and the supernatants were collected for analysis.
# Concentrations of tumor necrosis factor (TNF)-α, IL-6, granulocyte-macrophage colony-stimulating factor (GM-CSF), chemokine (C-X-C motif) ligand (CXCL)-1, CXCL-2, and chemokine (C-C motif) ligand (CCL)-2 in mouse lung homogenates were analyzed with the Mouse Premixed Multi-Analyte Kit (R&D Systems, Minneapolis, MN, USA) per the manufacturer’s protocol and using a Luminex 200 System (Luminex Corporation, Austin, TX, USA). Cytokine and chemokine concentrations were determined from blank-corrected median fluorescence intensity of each sample via xPONENT® software (Luminex Corporation), interpolating from standard curves generated with a 5-parameter logistic curve-fit.
# Mouse Total MMP (matrix metalloprotease)-9 and IL-1β/IL-1F2 DuoSet ELISA (enzyme-linked immunosorbent assay) kits (R&D Systems) were used to measure concentrations of MMP-9 and IL-1β, respectively, in lung homogenates per the manufacturer’s protocols. Absorbance at 450 nm was measured using the SpectraMax i3 (Molecular Devices, San Jose, CA, USA). Concentrations of MMP-9 and IL-1β in samples were determined by interpolation from standard curves.
# Differences between treated versus vehicle groups were determined using the Mann-Whitney test and were considered statistically significant when P<0.05. Outliers in the analysis of cytokine and chemokine concentrations were identified using the Grubbs test. No criteria were set for inclusion/exclusion of animals during the experiment or data points during the analysis.
structure (smiles),measurement,setting,value
C=C[C@]1(C)C[C@@H](OC(=O)CS[C@@H]2CC[C@@H](N)C[C@H]2O)[C@]2(C)[C@H](C)CC[C@]3(CCC(=O)[C@H]32)[C@@H](C)[C@@H]1O [Lefamulin],"levels of all cytokines and chemokines assessed, as well as of MMP-9, in lung homogenate","10, 30, and 100 mg/kg SC, vs vehicle",significantly reduced
same,MMP-9 levels in lung homogenate,30 and 100 mg/kg SC,Significant reductions
same,IL-1β concentrations in lung homogenate,[1],dose-dependent effect
same,chemokines and GM-CSF in lung homogenate,[1],Significant reductions
same,IL-6 concentrations in lung homogenate,[2],significantly reduced
same,TNF-α concentrations in lung homogenate,[2],significantly reduced
same,IL-1β concentrations in lung homogenate,"highest dose, 100 mg/kg SC",significant inhibition
same,CCL2 % reduction,10 mg/kg,93%
same,CXCL1 % reduction,10 mg/kg,62%
same,CXCL2 % reduction,10 mg/kg,73%
same,GM-CSF % reduction,10 mg/kg,85%
same,IL-1β % reduction,10 mg/kg,-19%
same,IL-6 % reduction,10 mg/kg,106%
same,MMP9 % reduction,10 mg/kg,8%
same,TNFα % reduction,10 mg/kg,79%
same,CCL2,10 mg/kg,1377.65 pg/mL and 537.39 pg/mL and 646.70 pg/mL and 438.83 pg/mL and 518.31 pg/mL and 1456.64 pg/mL and 908.74 pg/mL and 229.87 pg/mL
same,CXCL1,10 mg/kg,6971.93 pg/mL and 4329.90 pg/mL and 5523.90 pg/mL and 4582.09 pg/mL and 5582.50 pg/mL and 5633.76 pg/mL and 4136.19 pg/mL and 3104.94 pg/mL
same,CXCL2,10 mg/kg,5052.98 pg/mL and 3065.52 pg/mL and 3267.04 pg/mL and 2748.29 pg/mL and 3142.03 pg/mL and 3891.00 pg/mL and 3712.25 pg/mL and 1806.80 pg/mL
same,GM-CSF,10 mg/kg,67.71 pg/mL and 29.84 pg/mL and 24.75 pg/mL and 26.44 pg/mL and 92.13 pg/mL and 45.24 pg/mL
same,IL-1β,10 mg/kg,13048 pg/mL and 11802 pg/mL and 8955 pg/mL and 11618 pg/mL and 14924 pg/mL and 15796 pg/mL and 14205 pg/mL and 13632 pg/mL
same,IL-6,10 mg/kg,250.42 pg/mL and 122.57 pg/mL and 71.56 pg/mL and 75.97 pg/mL and 378.35 pg/mL and 273.00 pg/mL and 109.22 pg/mL
same,MMP9,10 mg/kg,2581 pg/mL and 2222 pg/mL and 2051 pg/mL and 2196 pg/mL and 2373 pg/mL and 1878 pg/mL and 2354 pg/mL and 2294 pg/mL
same,TNFα,10 mg/kg,82.13 pg/mL and 385.92 pg/mL and 198.20 pg/mL and 183.71 pg/mL and 132.63 pg/mL and 135.37 pg/mL and 337.98 pg/mL and 306.86 pg/mL
same,CCL2 Mean,10 mg/kg,764 pg/mL
same,"CXCL1, Mean",10 mg/kg,4983 pg/mL
same,"CXCL2, Mean",10 mg/kg,3336 pg/mL
same,GM-CSF Mean,10 mg/kg,43 pg/mL
same,IL-1β Mean,10 mg/kg,12997 pg/mL
same,IL-6 Mean,10 mg/kg,175 pg/mL
same,"MMP9, Mean",10 mg/kg,2244 pg/mL
same,TNFα Mean,10 mg/kg,220 pg/mL
same,CCL2 % reduction,30 mg/kg,105%
same,CXCL1 % reduction,30 mg/kg,52%
same,CXCL2 % reduction,30 mg/kg,61%
same,GM-CSF % reduction,30 mg/kg,95%
same,IL-1β % reduction,30 mg/kg,8%
same,IL-6 % reduction,30 mg/kg,120%
same,MMP9 % reduction,30 mg/kg,26%
same,TNFα % reduction,30 mg/kg,77%
same,CCL2,30 mg/kg,664.18 pg/mL and 229.87 pg/mL and 256.42 pg/mL and 281.81 pg/mL and 306.24 pg/mL and 172.04 pg/mL
same,CXCL1,30 mg/kg,9099.72 pg/mL and 7572.60 pg/mL and 6087.32 pg/mL and 5765.52 pg/mL and 5509.25 pg/mL and 4685.62 pg/mL and 6328.54 pg/mL and 4359.63 pg/mL
same,CXCL2,30 mg/kg,7789.00 pg/mL and 4810.48 pg/mL and 4106.80 pg/mL and 4675.09 pg/mL and 4634.09 pg/mL and 3899.14 pg/mL and 3943.89 pg/mL and 3825.96 pg/mL
same,GM-CSF,30 mg/kg,46.10 pg/mL and 24.75 pg/mL and 27.29 pg/mL and 23.05 pg/mL and 21.37 pg/mL and 16.32 pg/mL and 9.66 pg/mL
same,IL-1β,30 mg/kg,12246 pg/mL and 8161 pg/mL and 9564 pg/mL and 10656 pg/mL and 10104 pg/mL and 9202 pg/mL and 9081 pg/mL and 11831 pg/mL
same,IL-6,30 mg/kg,118.12 pg/mL and 87.03 pg/mL and 60.54 pg/mL and 67.15 pg/mL and 58.34 pg/mL and 45.17 pg/mL and 29.90 pg/mL and 48.46 pg/mL
same,MMP9,30 mg/kg,2129 pg/mL and 1886 pg/mL and 1848 pg/mL and 1924 pg/mL and 1726 pg/mL and 1867 pg/mL and 2081 pg/mL and 2097 pg/mL
same,TNFα,30 mg/kg,186.35 pg/mL and 395.67 pg/mL and 202.12 pg/mL and 215.17 pg/mL and 246.13 pg/mL and 275.41 pg/mL and 284.25 pg/mL and 181.07 pg/mL
same,CCL2 Mean,30 mg/kg,296 pg/mL
same,"CXCL1, Mean",30 mg/kg,6176 pg/mL
same,"CXCL2, Mean",30 mg/kg,4711 pg/mL
same,GM-CSF Mean,30 mg/kg,23 pg/mL
same,IL-1β Mean,30 mg/kg,10106 pg/mL
same,IL-6 Mean,30 mg/kg,64 pg/mL
same,"MMP9, Mean",30 mg/kg,1945 pg/mL
same,TNFα Mean,30 mg/kg,248 pg/mL
same,CCL2 % reduction,100 mg/kg,107%
same,CXCL1 % reduction,100 mg/kg,57%
same,CXCL2 % reduction,100 mg/kg,64%
same,GM-CSF % reduction,100 mg/kg,96%
same,IL-1β % reduction,100 mg/kg,24%
same,IL-6 % reduction,100 mg/kg,117%
same,MMP9 % reduction,100 mg/kg,53%
same,TNFα % reduction,100 mg/kg,81%
same,CCL2,100 mg/kg,329.86 pg/mL and 256.42 pg/mL and 172.04 pg/mL and 139.64 pg/mL
same,CXCL1,100 mg/kg,7499.26 pg/mL and 6087.32 pg/mL and 5076.24 pg/mL and 5758.20 pg/mL and 5443.29 pg/mL and 4906.96 pg/mL and 4656.06 pg/mL and 5472.61 pg/mL
same,CXCL2,100 mg/kg,5382.65 pg/mL and 5518.93 pg/mL and 4695.59 pg/mL and 3380.13 pg/mL and 4061.97 pg/mL and 3178.30 pg/mL and 3700.08 pg/mL and 4913.16 pg/mL
same,GM-CSF,100 mg/kg,21.37 pg/mL and 19.68 pg/mL and 33.25 pg/mL and 14.65 pg/mL and 16.32 pg/mL and 11.32 pg/mL
same,IL-1β,100 mg/kg,10645 pg/mL and 6459 pg/mL and 7591 pg/mL and 8558 pg/mL and 9892 pg/mL and 7429 pg/mL and 7844 pg/mL and 8730 pg/mL
same,IL-6,100 mg/kg,135.95 pg/mL and 78.18 pg/mL and 127.03 pg/mL and 99.22 pg/mL and 71.56 pg/mL and 56.14 pg/mL and 105.88 pg/mL
same,MMP9,100 mg/kg,2385 pg/mL and 1353 pg/mL and 1095 pg/mL and 1490 pg/mL and 1351 pg/mL and 1232 pg/mL and 1807 pg/mL and 1236 pg/mL
same,TNFα,100 mg/kg,204.74 pg/mL and 121.62 pg/mL and 366.33 pg/mL and 248.69 pg/mL and 116.08 pg/mL and 181.07 pg/mL and 124.38 pg/mL and 233.28 pg/mL
same,CCL2 Mean,100 mg/kg,209 pg/mL
same,"CXCL1, Mean",100 mg/kg,5612 pg/mL
same,"CXCL2, Mean",100 mg/kg,4354 pg/mL
same,GM-CSF Mean,100 mg/kg,19 pg/mL
same,IL-1β Mean,100 mg/kg,8394 pg/mL
same,IL-6 Mean,100 mg/kg,91 pg/mL
same,"MMP9, Mean",100 mg/kg,1494 pg/mL
same,TNFα Mean,100 mg/kg,200 pg/mL
